Test results from PubChem BioAssay AID1645871.

Details: pampa; pH 5.0; 30.0 min; 50.0 µM

| Structure (SMILES) | Papp [×10⁻⁶ cm/s] |
| --- | --- |
| COc1ccc(C(=O)N2CCCC(c3nn(-c4ccc(OC)cc4)c(=O)[nH]3)C2)cc1 (centres undefined) | 255 |
| COC(=O)c1cc2occc2n1Cc1nc(-c2ccc(C)cc2)oc1C | 257 |
| NCC(=O)Nc1cncc(-c2nn3c(=O)cc(N4CCNCC4)nc3s2)c1 | 1.07 |
| CN(C)CCCn1cc(C2=C(c3c[nH]c4ccccc34)C(=O)NC2=O)c2ccccc21 | 39.3 |
| c1coc(-c2nc3ccncc3[nH]2)c1 | 5.56 |
| CNc1nc(-c2ccc3c(N)n[nH]c3c2)cc(N2C[C@@H](C(=O)NC3CCCCC3)CC[C@H]2C)n1 | 26.1 |
| Cc1ccc(-c2ccc(CNc3nc(-c4ccccc4C(C)C)nc4ccccc34)cc2)cn1 | 857 |
| COc1ccccc1N1CCN(CCN(C(=O)c2ccc(I)cc2)c2ccccn2)CC1 | 758 |
| C[C@H]1CN(C(=O)Nc2ccc(F)cc2F)C[C@@H]1c1nc(-c2ccccc2)no1 | 917 |
| COc1cc(NC(=O)c2cc(-c3ccccc3O)no2)cc(OC)c1OC | > 1000 |
| O=C(NCCCNc1nc(Nc2cccc(CN3CCOCC3)c2)ncc1C1CC1)C1CCC1 | 8.82 |
| Cn1cc2c3c(cccc31)CN(C(=O)c1ccc(F)c(Cl)c1)CC2 | 824 |
| CCN(c1ccccc1)S(=O)(=O)c1c(C)nc2scc(C)n2c1=O | 479 |
| Cc1nc(-c2ccccc2)cc([C@H]2CN3CC[C@H]2C[C@@H]3CNC2CCOCC2)n1 | 12.9 |
| CN1CCC(N(Cc2cccs2)c2ccccc2)CC1 | 254 |
| CCN(CC)C(=O)c1coc(COc2ccc3c(c2)C(c2cccc(F)c2)N(C(=O)C(C)C)CC3)n1 (centres undefined) | > 1000 |
| Cc1ccc2oc3c(c(=O)c2c1)C(c1ccc(O)cc1)N(CCCN(C)C)C3=O (centres undefined) | 3.9 |
| CC1=C[C@@H](CNC(C)C)[C@H](C(C)C)C[C@H]1Cc1nnc(-c2ccncc2)o1 | 41.3 |
| Cc1ccc(-n2c(=O)c3oc4ccccc4c3n(CC(=O)Nc3ccc(F)c(Cl)c3)c2=O)cc1C | 583 |
| COc1cc2c(c(OC)c1OC)-c1ccc(SC)c(=O)cc1C(N)CC2 (centres undefined) | 55 |
| O=C(NCC1CCOCC1)C1CC(=O)N(c2n[nH]c3cc(Br)ccc23)C1 (centres undefined) | 10.6 |
| COc1ccc(C)cc1NC(=O)c1cnc(-c2ccc(F)cc2)nc1-c1ccncc1 | 926 |
| CC(=O)c1c(C)oc2ccc(N(C(=O)Oc3ccccc3)S(=O)(=O)c3ccccc3)cc12 | > 1000 |
| Cc1noc(C)c1Cc1ccc(C(=O)N2CCc3c(nc4cc(-c5ccccc5)[nH]n4c3=O)C2)o1 | 9.03 |
| Cc1ccc(NC(=O)NCC2CCN(Cc3cccc(Cl)c3)CC2)cc1Cl | > 1000 |
| COc1ccc(-c2nc3sc(CCNC(=O)C(C)(C)C)c(C)n3n2)cc1 | 657 |

| Structure (SMILES) | Papp [×10⁻⁶ cm/s] |
| --- | --- |
| Clc1ccc(C2(c3ccc(-c4cn[nH]c4)cc3)CCNCC2)cc1 | 3.6 |
| CNc1oc(-c2cccc(Cl)c2Cl)nc1C#N | 589 |
| CN1CCN(c2ccc(Nc3nn4c(=O)c5ccccc5nc4s3)cc2)CC1 | 5.91 |
| CC(=O)N1CCc2c(sc3c2c(=O)n(-c2ccccc2Cl)c(=O)n3Cc2cccc(C)c2)C1 | 687 |
| CN(C)CCOC1=Cc2ccccc2Sc2ccc(Cl)cc21 | 857 |
| O=C(O)c1cccc(-c2noc(-c3ccccc3F)n2)c1 | 892 |
| COc1cccc(CNCc2cccn2-c2nnc(N3CCN(c4ccccc4)CC3)s2)c1 | 924 |
| CN(C)c1cccc(-c2cnc(Nc3cccnc3)c3c2CCO3)c1 | > 1000 |
| Cc1ccc(C(=O)N2CCc3c(nc4cc(-c5ccccc5)[nH]n4c3=O)C2)cn1 | 1.2 |
| O=C1CN(C(=O)CCC(=O)N2CCc3c(nc4cc(-c5ccccc5)[nH]n4c3=O)C2)c2ccccc2N1 | 6.84 |
| O=C(CCCCn1c(=O)[nH]c2ccsc2c1=O)N1CCN(c2cccc(Cl)c2)CC1 | 719 |
| CC(=O)N[C@H]1CN(C2CCN(c3ccc(F)cc3C)CC2)C[C@@H]1C1CC1 | 144 |
| CCOc1cc(=O)n2c(c1C(=O)Nc1cc(OC)c(Cl)cc1OC)CCCC2 | 68.7 |
| Cc1ccc2oc3c(c(=O)c2c1)C(c1cccc(O)c1)N(CCCN1CCOCC1)C3=O (centres undefined) | 2.62 |
| Cc1c(C(=O)NN2CCCCC2)nn(-c2ccc(Cl)cc2Cl)c1-c1ccc(Cl)cc1 | > 1000 |
| O=C(c1ccc(-c2ncc3cnc(-c4ccccc4)cn23)cc1)N1CCS(=O)(=O)CC1 | 22.8 |
| CC(C)(C)c1ccc(S(=O)(=O)N2CCC(c3ccncc3)CC2)cc1 | 754 |
| COc1ccc(-n2nc(C3CCCN(C(=O)c4ccc(C)cc4)C3)[nH]c2=O)cc1 (centres undefined) | 603 |
| CS(=O)(=O)CCNCc1ccc(-c2ccc3ncnc(Nc4ccc(OCc5cccc(F)c5)c(Cl)c4)c3c2)o1 | 69.7 |
| CCOC(=O)c1ccc(N2C(=O)c3n[nH]c(-c4cccs4)c3C2c2ccc(OCC)cc2)cc1 (centres undefined) | 448 |
| COc1ccccc1-c1nc(NCc2ccc(-c3cccnc3)cc2)c2ccccc2n1 | 727 |
| COc1ccc(OC)c(CNc2ncnc3onc(C)c23)c1 | 250 |
| COc1ccccc1NC(=O)C1=C(C)Nc2c(C(=O)Nc3cccc(C)c3)cnn2C1c1ccccc1Cl (centres undefined) | 156 |
| COc1ccc(-c2nc3c(c(SCC(=O)Nc4ccc(C(=O)O)cc4)n2)Cc2ccccc2O3)cc1 | 36.6 |
| O=C(Nc1ccc2c(N3CCCCC3)ncnc2c1)c1cc(F)cc(F)c1 | 817 |
| Cn1c(=O)c2c(-c3ccc(Br)cc3)n(CCc3ccccc3)cc2n(C)c1=O | 591 |

| Structure (SMILES) | Papp [×10⁻⁶ cm/s] |
| --- | --- |
| CN1CCN(C2=Nc3ccccc3Sc3ccc(Cl)cc32)CC1 | 887 |
| CC(C)c1ccc(OCc2nc3c(n2Cc2ccccc2)C(=O)N(CC2CCOCC2)CCN3)cc1 | 643 |
| COc1ccccc1C(=O)NC1CCCc2c1[nH]c1c(Cl)cccc21 (centres undefined) | 607 |
| CCOC(=O)c1ccc(NC(=O)CSc2nc3c(cc2C#N)N2CCC3CC2)cc1 | 236 |
| CCOc1ccccc1CNS(=O)(=O)c1ccc(-c2cnc(C3CC3)o2)cc1 | > 1000 |
| Cn1ncnc1[C@H]1c2n[nH]c(=O)c3cc(F)cc(c23)N[C@@H]1c1ccc(F)cc1 | 46.2 |
| COc1ccc(-n2nc(C)c([C@@H]3C=C[C@@H](NCc4ccc(N(C)C)cc4)C3)c2C)cc1 | > 1000 |
| O=C(O)Cc1ccc2oc(-c3ccc(NC(=O)/C=C/c4ccc(Br)cc4)c(F)c3)nc2c1 | 405 |
| COc1ccc2[nH]cc(CCNC(=O)c3cnn(-c4ccc(C)cc4)c3C3CCN(C(=O)OC(C)(C)C)CC3)c2c1 | 689 |
| COc1ccccc1Nc1cnc2ccc(-c3ccc(OC)c(OC)c3)nn12 | 621 |
| CCOc1ccc(CNC(=O)CCCn2nc(C)c3c(C)n(-c4ccc(C)cc4)nc3c2=O)cc1 | 582 |
| CCN(CCCOc1ccc2c(Nc3cc(CC(=O)Nc4cccc(F)c4)[nH]n3)ncnc2c1)CCOP(=O)(O)O | 3.64 |
| COc1ccccc1CN1CCNc2cc(Nc3ccccc3)ncc2C1 | 22.3 |
| O=C(CCCN1CCC(O)(c2ccc(Cl)cc2)CC1)c1ccc(F)cc1 | 396 |
| Cc1ccc(NC2=C(c3ccc(C(F)(F)F)cc3)C(=O)c3ccccc32)cc1F | 574 |
| Fc1ccc(CNc2cc3c(cn2)CN(Cc2ccncc2)CCN3)cc1 | 14.3 |
| COC(=O)Nc1nc2ccc(C(=O)c3ccccc3)cc2[nH]1 | 455 |
| COc1cc2ncnc(Nc3ccc(Oc4ccccc4)cc3)c2cc1OC | 981 |
| CCc1cccc(NC(=O)C(Cc2ccccc2)NS(=O)(=O)c2cccs2)c1 (centres undefined) | > 1000 |
| c1cc(-c2cc(-c3ccncc3)c3cncn3c2)c2[nH]ncc2c1 | 20.3 |
| CCC(CC)c1cc([C@H]2CN3CC[C@H]2C[C@@H]3CNC(C)=O)nc(-c2ccncc2)n1 | 14.9 |
| COc1ccc(-n2nc(C3CCN(C(=O)C4CC4)CC3)[nH]c2=O)cc1 | 130 |
| Cc1ccc(NC(=O)C(Cc2ccccc2)NS(=O)(=O)c2cccs2)cc1Cl (centres undefined) | 570 |
| Cc1ccc(C)c(CN2CCC(CNC(=O)Nc3ccc(Br)cc3F)CC2)c1 | 979 |
| O=S(=O)(c1ccccc1)c1nc(-c2ccc(F)cc2)oc1N1CCCCCC1 | > 1000 |
| CN1CCN(Cc2ccc(NC(=O)Cc3ccc(Oc4cc(NC(=O)C5CC5)ncn4)cc3)cc2C(F)(F)F)CC1 | 19.3 |

| Structure (SMILES) | Papp [×10⁻⁶ cm/s] |
| --- | --- |
| COc1cc(NC(=O)Cn2c(=O)oc3cc(S(=O)(=O)N4CCCCCC4)ccc32)cc(OC)c1 | 372 |
| c1ccc(CNc2nc(NCc3ccccc3)c3ccccc3n2)cc1 | 190 |
| O=C(NCCc1cnc[nH]1)c1ccc(-c2ncc3cnc(-c4cccc(F)c4)cn23)cc1 | 5.09 |
| COc1ccc2c(c1)N(C[C@H](C)CN(C)C)c1ccccc1S2 | 723 |
| COc1c(O)cc2c(c1OC)-c1ccc(SC)c(=O)cc1C(NC(C)=O)CC2 (centres undefined) | 20.7 |
| CN(C(=O)CSc1nc2ccc(NC(=O)c3ccc(F)cc3)cc2s1)c1ccccc1 | 901 |
| COc1cccc(CNC(=O)CCCn2nc(C)c3c(C)n(-c4ccc(C)cc4)nc3c2=O)c1OC | 446 |
| O=C1Nc2cc(Cl)ccc2Nc2cscc21 | 63.3 |
| COc1ccccc1-c1nnc2sc(-c3ccc(N(C)C)cc3)nn12 | > 1000 |
| COc1cc(C(=O)N2CCN(c3cc(Cl)ccc3Cl)CC2)cc(OC)c1OC | > 1000 |
| OC1(c2ccc(Cl)cc2)CCN(Cc2c[nH]c3ccccc23)CC1 | 419 |
| N#Cc1ccc(-c2ccc(CNc3ccc(C4CCNCC4)cc3)o2)cc1 | 236 |
| O=C(Nc1ccc(Oc2ccnc3[nH]ccc23)c(F)c1)c1cccn(-c2ccc(F)cc2)c1=O | 9.36 |
| COC(=O)c1ccc(NS(=O)(=O)c2c(C)nc3sccn3c2=O)cc1 | 413 |
| CCOC(=O)c1ccc(NC(=O)c2sc3nc4c(cc3c2N)N2CCC4CC2)cc1 | 720 |
| Cn1nnnc1Sc1ncnc2scc(-c3ccccc3F)c12 | 451 |
| Cc1ccccc1C(=O)NC1CCN(c2ccc3nnc(C4CC4)n3n2)CC1 | 35 |
| CCc1[nH]c2ccc(CNC(=O)Cc3cnc4c(C)cccn34)cc2c1C | 32.2 |
| CN(C)c1ccc(CN2CCNc3cc(Nc4ccccc4)ncc3C2)cc1 | 107 |
| CCOc1ccc(Nc2nc(C)c(NC(=O)c3ccc(C)cc3)c(Nc3ccc(OCC)cc3)n2)cc1 | 59 |
| COc1ccc(-c2nc3ccc(C4=NNC(=O)CC4C)cc3[nH]2)cc1 (centres undefined) | 232 |
| COC(=O)[C@@H]1C[C@H](OC(C)=O)C(=O)[C@H]2[C@@]1(C)CC[C@H]1C(=O)O[C@H](c3ccoc3)C[C@]21C | 381 |
| O=S(=O)(Nc1ccc(-c2cccnc2)c2cccnc12)c1cccc(C(F)(F)F)c1 | > 1000 |
| Cc1ccc(CNCc2cn[nH]c2-c2ccc(C)cc2)cc1 | 410 |
| O=C(O)c1cnc(-c2ccc(F)cc2)nc1-c1ccncc1 | 38.3 |
| Fc1ccccc1CNCc1ccc(-c2ccnc3[nH]ccc23)cc1 | 266 |
